Measurements published in ChEMBL document CHEMBL1201862, “PubChem BioAssay data set” (2004).
Calls of active or inactive are those of the source.

Assays:
Mu-type opioid receptor = Mu-type opioid receptor (Homo sapiens, UniProt P35372); type: functional, cell-based;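 also: U2OS cells with beta-arrestin recruitment to OPRM1 by beta-gal complementation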
[1] = target: 5-hydroxytryptamine receptor 2A (Mus musculus, UniProt P35363); type: functional, cell-based;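 also: CHO-K1 cells with tagged receptor and beta-arrestin; agonist potency measured as compound-induced activation of the receptor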
[2] = target: T1, Long-chain-fatty-acid--AMP ligase FadD28 (Mycobacterium tuberculosis, UniProt P9WQ59); assay: Fluorescence polarization aasay to screen for inhibitors that compete for the binding of FadD28 to a bisubstrate Measured in Biochemical System Using Plate Reader - 2147-01_Inhibitor_Dose_CherryPick_Activity.; type: functional, Mycobacterium tuberculosis H37Rv
T1 sequence (P9WQ59 whole entry): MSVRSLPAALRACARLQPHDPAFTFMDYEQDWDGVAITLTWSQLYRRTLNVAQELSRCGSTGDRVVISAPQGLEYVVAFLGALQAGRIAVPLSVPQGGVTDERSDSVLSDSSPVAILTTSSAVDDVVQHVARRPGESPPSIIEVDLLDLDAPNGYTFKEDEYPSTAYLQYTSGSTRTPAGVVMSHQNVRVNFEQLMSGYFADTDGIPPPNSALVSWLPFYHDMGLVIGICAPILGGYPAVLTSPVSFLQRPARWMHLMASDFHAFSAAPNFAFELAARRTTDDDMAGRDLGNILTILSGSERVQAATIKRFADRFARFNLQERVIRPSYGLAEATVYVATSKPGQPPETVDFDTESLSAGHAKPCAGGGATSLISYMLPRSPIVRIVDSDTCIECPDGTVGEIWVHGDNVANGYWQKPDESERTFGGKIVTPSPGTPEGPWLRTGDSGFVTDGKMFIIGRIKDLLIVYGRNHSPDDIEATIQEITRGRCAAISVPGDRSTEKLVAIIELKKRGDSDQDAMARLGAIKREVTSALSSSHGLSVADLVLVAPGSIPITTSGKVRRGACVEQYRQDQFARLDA

cells = type: functional, cell-based
[3] = target: T2, Nuclear receptor subfamily 0 group B member 1 (Homo sapiens, UniProt P51843); type: functional, cell-based;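 also: HEK293T cells transfected with SF-1 and DAX-1 plus StAR promoter luciferase reporter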
T2 sequence (P51843 whole entry): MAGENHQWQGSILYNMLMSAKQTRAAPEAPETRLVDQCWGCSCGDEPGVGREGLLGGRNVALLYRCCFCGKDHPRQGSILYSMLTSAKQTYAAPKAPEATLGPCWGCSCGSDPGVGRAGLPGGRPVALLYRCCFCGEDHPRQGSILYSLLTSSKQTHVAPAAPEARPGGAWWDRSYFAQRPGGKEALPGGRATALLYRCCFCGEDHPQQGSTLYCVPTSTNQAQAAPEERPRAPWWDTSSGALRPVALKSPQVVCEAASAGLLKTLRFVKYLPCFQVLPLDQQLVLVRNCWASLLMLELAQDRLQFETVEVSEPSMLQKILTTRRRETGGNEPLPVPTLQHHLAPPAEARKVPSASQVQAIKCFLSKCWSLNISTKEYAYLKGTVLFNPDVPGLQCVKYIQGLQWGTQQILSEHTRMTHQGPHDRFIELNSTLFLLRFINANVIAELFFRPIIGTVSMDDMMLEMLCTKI

[4] = target: T3, RNA-binding protein pos-1 (Caenorhabditis elegans, UniProt G5EF15); assay: inhibitors of POS-1/mex-3 RNA binding, dose response, biochemical, fluorescence polarization (AID 1964);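 also: purified POS-1 fused to maltose binding protein made in E. coli; potency of compounds blocking POS-1 binding to fluorescent RNA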
T3 sequence (G5EF15 whole entry): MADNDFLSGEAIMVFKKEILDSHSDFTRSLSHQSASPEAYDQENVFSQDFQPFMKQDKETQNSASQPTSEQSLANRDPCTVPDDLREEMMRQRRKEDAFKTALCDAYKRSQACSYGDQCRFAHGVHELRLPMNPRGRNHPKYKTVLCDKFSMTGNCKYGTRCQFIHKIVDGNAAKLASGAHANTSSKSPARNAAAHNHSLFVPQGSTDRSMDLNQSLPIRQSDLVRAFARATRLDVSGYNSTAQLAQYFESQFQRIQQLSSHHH

[5] = target: T4, Zinc finger protein mex-5 (Caenorhabditis elegans, UniProt Q9XUB2); assay: MEX-5/TCR-2 RNA interaction inhibitors, dose response, biochemical, C. elegans, fluorescence polarization (AID 1960)
T4 sequence (Q9XUB2 whole entry): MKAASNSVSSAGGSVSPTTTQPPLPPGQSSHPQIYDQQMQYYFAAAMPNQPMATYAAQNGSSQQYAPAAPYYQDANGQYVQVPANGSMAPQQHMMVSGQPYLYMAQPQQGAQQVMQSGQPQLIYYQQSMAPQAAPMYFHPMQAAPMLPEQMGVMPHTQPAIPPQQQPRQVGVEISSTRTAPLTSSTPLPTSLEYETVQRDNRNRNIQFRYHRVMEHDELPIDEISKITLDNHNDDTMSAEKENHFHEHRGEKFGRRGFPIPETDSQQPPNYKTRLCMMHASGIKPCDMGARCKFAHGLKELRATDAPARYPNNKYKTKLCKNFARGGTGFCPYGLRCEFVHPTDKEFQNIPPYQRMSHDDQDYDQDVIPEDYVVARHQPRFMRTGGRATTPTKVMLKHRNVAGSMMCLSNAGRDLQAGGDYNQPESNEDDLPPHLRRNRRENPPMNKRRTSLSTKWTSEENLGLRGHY

Large T antigen = Large T antigen (Simian virus 40, UniProt P03070); type: functional, Betapolyomavirus macacae;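 also: Confirmatory-stage PubChem screen for compounds that inhibit SV40 T antigen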
[6] = target: Induced myeloid leukemia cell differentiation protein Mcl-1 (Homo sapiens, UniProt Q07820); type: functional
[7] = target: DNA (cytosine-5)-methyltransferase 1 (Homo sapiens, UniProt P26358); assay: DNMT1 methyltransferase inhibitors, confirmation, biochemical, fluorescent molecular beacon (AID 602386); type: functional
[8] = target: T5, Small ubiquitin-related modifier 1 (Homo sapiens, UniProt P63165); assay: inhibitors of SUMO1 peptide binding, dose response, biochemical, fluorescence polarization, uHTS hits (AID 624382); type: functional; details: read-out: IC50_Mean
[9] = target: T5, Small ubiquitin-related modifier 1; assay: inhibitors of SUMO1 partner interactions, dose response, biochemical, FRET (AID 624383); type: functional; details: read-out: IC50_Mean
[10] = target: T6, Histone-lysine N-methyltransferase NSD2 (Homo sapiens, UniProt O96028); type: biochemical
T6 sequence (O96028 whole entry): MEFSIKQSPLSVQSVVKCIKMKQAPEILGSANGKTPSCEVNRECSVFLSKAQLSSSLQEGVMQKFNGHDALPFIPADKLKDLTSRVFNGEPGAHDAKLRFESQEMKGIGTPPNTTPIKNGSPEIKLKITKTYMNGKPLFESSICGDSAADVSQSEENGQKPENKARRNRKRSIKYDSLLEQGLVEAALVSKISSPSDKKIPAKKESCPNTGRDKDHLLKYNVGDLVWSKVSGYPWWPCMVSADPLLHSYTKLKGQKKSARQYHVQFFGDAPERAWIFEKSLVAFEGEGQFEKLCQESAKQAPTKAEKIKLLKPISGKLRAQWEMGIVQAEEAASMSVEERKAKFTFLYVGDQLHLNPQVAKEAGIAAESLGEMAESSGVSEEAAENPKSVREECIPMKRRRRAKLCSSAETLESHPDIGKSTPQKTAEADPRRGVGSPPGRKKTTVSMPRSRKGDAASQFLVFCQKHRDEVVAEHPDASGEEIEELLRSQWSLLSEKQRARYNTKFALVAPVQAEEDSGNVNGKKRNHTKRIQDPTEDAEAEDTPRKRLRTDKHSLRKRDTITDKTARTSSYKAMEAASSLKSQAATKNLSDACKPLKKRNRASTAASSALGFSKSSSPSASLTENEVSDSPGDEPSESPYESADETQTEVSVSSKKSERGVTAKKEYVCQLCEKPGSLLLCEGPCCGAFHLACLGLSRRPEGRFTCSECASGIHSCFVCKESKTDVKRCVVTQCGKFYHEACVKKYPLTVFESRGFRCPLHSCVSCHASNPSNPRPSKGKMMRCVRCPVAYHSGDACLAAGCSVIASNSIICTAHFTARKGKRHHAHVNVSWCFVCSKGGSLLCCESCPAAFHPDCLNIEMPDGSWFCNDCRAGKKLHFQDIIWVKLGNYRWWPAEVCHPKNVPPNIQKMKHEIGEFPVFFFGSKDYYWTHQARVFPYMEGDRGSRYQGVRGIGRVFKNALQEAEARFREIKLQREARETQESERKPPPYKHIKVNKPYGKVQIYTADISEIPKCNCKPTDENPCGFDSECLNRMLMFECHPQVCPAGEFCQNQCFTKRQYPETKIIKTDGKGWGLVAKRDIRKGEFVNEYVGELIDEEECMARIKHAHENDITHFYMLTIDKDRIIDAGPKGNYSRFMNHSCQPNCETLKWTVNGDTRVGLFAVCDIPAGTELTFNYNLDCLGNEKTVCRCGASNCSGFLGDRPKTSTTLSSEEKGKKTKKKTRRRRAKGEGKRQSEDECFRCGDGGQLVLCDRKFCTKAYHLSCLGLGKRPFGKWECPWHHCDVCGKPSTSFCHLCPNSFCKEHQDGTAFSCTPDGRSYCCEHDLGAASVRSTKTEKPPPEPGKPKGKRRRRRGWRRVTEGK

[11] = target: Luciferin 4-monooxygenase (Photinus pyralis, UniProt P08659); assay: Counter Screen for Luciferase-based Assay Positives. [Related pubchem assays: 620, 618, 411 ]
[12] = Luminescence Cell-Based Dose Response HTS to Identify Inhibitors of 5'UTR Stem-Loop Driven Prion Protein mRNA Translation in H4 Neuroglioblastoma Cells. [Related pubchem assays: 1827 (Project Summary), 1813 (Primary HTS)]; type: functional
HT-1080 = assay: cytotoxicity in HT1080 fibrosarcoma cells, cell-based, fluorescence readout (AID 620); type: functional; details: Homo sapiens
Protein skinhead-1 = target: T7, Protein skinhead-1 (Caenorhabditis elegans, UniProt P34707); type: functional
T7 sequence (P34707 whole entry): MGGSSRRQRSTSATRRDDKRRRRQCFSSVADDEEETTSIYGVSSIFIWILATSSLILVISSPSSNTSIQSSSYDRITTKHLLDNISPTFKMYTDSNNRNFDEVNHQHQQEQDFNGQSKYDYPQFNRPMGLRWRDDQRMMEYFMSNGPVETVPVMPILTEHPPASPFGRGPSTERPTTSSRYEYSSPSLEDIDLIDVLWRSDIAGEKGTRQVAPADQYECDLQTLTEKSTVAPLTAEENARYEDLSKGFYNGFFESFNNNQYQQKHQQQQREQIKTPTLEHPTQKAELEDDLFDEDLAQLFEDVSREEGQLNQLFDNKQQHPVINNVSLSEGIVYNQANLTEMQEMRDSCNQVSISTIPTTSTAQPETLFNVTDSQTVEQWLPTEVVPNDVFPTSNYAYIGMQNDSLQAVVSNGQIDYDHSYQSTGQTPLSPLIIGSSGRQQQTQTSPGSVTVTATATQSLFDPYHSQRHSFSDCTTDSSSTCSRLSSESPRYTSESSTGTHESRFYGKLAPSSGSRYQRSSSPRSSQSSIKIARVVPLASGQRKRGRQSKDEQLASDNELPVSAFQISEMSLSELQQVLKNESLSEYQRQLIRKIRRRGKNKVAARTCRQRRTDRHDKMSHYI

[13] = inhibitors of HIV Env-driven cell fusion, dose response, cherry-pick (AID 652057); type: functional, cell-based
[14] = CEM21 lymphoblast cell cytotoxicity, dose response, cytotoxicity control for viral fusion inhibitor project, CellTiter-Glo luminescence, cherry-picked (AID 652042); type: functional, cell-based;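 also: potency for signal decrease meaning cytotoxicity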
[15] = inhibitors of clade B AD8 Env fusion, dose response, cell-based, cherry-pick (AID 652062); type: functional;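 also: luciferase signal from cell-cell fusion driven by HIV-1 clade B AD8 Env; potency is for inhibitors of fusion seen as a drop in luminescence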
[16] = ZM109 Env clade C HIV-1 fusion inhibitors, dose response, HeLa effector, CEM target cells, luciferase, cherry-pick (AID 652058); type: functional, cell-based

Chain of 5-hydroxytryptamine receptor 2A (P35363 whole entry): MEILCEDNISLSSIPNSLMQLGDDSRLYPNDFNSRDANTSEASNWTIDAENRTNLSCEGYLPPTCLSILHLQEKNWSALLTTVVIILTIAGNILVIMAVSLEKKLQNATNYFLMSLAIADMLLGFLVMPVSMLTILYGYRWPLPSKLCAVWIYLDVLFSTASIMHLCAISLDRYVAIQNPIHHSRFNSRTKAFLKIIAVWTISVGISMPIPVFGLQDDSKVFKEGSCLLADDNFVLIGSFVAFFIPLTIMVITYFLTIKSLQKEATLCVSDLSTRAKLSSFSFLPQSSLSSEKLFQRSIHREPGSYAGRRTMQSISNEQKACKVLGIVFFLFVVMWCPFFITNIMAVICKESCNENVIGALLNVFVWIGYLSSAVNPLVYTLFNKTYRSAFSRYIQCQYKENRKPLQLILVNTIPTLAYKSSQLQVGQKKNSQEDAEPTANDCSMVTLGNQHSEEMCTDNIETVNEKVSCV
Chain of Mu-type opioid receptor (P35372 whole entry): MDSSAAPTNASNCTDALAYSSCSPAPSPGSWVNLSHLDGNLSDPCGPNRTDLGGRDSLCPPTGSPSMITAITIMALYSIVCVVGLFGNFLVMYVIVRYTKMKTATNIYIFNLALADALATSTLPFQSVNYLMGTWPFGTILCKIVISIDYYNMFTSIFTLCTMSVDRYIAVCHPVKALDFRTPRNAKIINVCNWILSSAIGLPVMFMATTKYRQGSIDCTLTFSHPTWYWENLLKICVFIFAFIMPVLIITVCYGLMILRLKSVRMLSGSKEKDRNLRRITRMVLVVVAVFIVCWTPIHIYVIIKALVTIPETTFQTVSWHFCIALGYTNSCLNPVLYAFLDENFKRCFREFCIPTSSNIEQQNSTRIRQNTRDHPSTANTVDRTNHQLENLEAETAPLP
T5 sequence (P63165 whole entry): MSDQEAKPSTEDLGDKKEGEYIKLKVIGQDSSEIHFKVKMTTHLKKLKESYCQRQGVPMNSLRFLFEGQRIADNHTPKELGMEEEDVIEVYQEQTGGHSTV
Chain of Large T antigen (P03070 whole entry): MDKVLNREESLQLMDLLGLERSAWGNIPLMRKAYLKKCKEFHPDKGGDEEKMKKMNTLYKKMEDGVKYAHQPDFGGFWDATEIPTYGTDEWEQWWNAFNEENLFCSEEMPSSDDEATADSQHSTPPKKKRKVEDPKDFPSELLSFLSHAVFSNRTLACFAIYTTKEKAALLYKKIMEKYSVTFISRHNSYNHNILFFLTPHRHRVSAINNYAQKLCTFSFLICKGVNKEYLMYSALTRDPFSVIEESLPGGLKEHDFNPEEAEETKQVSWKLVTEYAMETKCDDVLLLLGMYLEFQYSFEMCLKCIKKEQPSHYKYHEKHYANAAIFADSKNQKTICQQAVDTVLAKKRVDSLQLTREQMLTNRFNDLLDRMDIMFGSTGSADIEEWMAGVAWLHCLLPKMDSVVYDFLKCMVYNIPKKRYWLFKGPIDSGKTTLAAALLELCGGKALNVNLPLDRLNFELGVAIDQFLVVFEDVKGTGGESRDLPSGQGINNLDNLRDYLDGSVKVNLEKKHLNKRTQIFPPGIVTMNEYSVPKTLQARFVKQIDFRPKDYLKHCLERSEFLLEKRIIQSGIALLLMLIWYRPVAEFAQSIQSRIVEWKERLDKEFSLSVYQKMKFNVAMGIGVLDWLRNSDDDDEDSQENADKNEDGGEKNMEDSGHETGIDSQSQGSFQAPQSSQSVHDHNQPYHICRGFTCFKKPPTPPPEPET
Chain of DNA (cytosine-5)-methyltransferase 1 (P26358 whole entry): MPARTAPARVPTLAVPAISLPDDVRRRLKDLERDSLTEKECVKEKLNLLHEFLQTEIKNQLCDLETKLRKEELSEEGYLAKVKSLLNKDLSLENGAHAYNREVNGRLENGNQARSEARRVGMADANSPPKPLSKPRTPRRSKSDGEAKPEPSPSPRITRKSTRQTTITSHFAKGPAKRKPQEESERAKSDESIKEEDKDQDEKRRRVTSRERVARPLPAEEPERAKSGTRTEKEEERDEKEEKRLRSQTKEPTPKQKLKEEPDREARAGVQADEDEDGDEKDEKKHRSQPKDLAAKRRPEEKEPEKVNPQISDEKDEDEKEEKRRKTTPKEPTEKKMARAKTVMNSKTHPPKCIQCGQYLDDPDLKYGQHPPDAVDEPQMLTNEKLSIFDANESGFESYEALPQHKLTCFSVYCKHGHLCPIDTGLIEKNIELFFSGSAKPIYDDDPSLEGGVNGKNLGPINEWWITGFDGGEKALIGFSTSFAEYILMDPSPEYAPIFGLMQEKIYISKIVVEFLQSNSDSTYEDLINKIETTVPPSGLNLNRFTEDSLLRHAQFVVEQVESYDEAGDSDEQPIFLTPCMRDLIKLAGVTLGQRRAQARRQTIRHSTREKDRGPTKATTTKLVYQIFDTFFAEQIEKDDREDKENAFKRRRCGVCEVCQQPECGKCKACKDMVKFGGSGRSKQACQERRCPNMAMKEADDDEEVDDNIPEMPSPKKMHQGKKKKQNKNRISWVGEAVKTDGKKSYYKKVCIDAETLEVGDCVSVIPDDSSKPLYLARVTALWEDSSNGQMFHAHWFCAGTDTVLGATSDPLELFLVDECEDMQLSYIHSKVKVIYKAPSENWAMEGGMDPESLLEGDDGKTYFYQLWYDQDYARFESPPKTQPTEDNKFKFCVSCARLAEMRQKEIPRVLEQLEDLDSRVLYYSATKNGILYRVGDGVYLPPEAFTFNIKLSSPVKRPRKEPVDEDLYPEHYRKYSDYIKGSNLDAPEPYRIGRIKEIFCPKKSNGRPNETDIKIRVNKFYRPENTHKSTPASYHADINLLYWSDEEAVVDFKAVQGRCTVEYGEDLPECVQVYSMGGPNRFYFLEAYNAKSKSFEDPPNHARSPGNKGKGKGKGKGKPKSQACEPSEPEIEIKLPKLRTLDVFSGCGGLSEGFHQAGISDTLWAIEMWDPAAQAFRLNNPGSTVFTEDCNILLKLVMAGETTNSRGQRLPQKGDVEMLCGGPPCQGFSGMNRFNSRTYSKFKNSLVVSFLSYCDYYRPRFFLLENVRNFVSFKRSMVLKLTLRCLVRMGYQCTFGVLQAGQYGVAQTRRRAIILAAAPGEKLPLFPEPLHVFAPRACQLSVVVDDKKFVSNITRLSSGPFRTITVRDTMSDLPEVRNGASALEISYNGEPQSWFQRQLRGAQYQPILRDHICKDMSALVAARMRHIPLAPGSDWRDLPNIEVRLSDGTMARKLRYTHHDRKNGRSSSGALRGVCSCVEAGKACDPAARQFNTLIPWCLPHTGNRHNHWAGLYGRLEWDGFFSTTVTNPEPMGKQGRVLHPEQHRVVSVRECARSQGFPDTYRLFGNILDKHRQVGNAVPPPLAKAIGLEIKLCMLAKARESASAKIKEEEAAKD
Chain of Induced myeloid leukemia cell differentiation protein Mcl-1 (Q07820 whole entry): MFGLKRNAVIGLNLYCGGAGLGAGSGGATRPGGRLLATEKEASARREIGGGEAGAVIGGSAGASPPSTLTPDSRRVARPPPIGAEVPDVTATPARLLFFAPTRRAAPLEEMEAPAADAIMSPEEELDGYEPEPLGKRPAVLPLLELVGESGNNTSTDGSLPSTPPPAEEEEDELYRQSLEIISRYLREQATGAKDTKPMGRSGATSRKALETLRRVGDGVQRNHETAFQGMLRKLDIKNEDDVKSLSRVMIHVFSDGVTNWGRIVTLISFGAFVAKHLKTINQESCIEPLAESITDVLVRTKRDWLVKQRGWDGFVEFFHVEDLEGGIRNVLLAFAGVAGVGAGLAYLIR
Chain of Luciferin 4-monooxygenase (P08659 whole entry): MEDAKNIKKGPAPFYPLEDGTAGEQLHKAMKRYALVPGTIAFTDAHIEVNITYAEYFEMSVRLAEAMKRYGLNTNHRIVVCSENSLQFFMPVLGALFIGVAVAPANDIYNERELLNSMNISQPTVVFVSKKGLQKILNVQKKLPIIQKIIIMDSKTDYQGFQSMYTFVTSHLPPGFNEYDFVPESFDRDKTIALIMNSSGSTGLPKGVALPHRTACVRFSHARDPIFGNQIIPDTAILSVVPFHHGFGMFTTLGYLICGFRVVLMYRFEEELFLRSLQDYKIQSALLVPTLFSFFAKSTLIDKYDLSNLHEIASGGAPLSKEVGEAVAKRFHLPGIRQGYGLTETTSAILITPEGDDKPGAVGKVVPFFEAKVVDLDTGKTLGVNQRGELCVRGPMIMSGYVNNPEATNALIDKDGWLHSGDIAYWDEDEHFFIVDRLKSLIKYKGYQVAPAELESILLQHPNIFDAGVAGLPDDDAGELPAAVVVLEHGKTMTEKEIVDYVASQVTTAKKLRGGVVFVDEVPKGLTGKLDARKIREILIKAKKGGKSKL

CCOC(=O)N1CCN(Cc2ccc(OCC(O)CN3CCCCC3)cc2)CC1 (centres undefined)
EC50 (Mu-type opioid receptor): 92.5 µM (inactive)
EC50 [1]: 2.22 µM (active)

c1cnc(N2CCN(Cc3ccc4c(c3)OCO4)CC2)nc1
EC50 (Mu-type opioid receptor): 92.5 µM (inactive)
EC50 [1]: 0.00986 µM (active)

CCc1cccc2c(C(=O)CN3C(=O)NC4(CCc5ccccc54)C3=O)c[nH]c12 (centres undefined)
AC50 [2]: 29.2 µM (active)
IC50 (cells): > 67.5 µM (inactive)
IC50 [3]: > 67.5 µM (inactive)

O=C(COC(=O)c1ccc(O)cc1O)c1ccc(Cl)cc1
IC50 (cells): > 67.5 µM (inactive)
IC50 [3]: > 67.5 µM (inactive)

O=C(O)c1ccc(-n2cccc2/C=C2/NC(=O)N(c3ccccc3)C2=O)cc1
EC50 [4]: > 300 µM (not active)
EC50 [5]: 71.1 µM (active)
IC50 (Large T antigen): > 100 µM (active)
IC50 [6]: 3.51 µM (active)
IC50 [7]: 3.83 µM (active)
IC50 [8]: > 66.6 µM (inactive)
IC50 [9]: 9.62 µM (active)
AC50 [10]: 5.87 µM (active)

O=C(/C=C\Nc1ccccn1)c1ccccc1
EC50 [11]: < 0.2 µM (active)
EC50 [12]: 10.7 µM (inconclusive)
EC50 (HT-1080): > 50 µM (not active)
IC50 (Protein skinhead-1): 15.1 µM (active)
IC50 (cells): > 67.5 µM (inactive)
IC50 [3]: > 67.5 µM (inactive)

CC[C@@H](C)[C@H](C(CC(=O)N1CCCC1[C@@H](OC)[C@H](C)C(=O)N[C@H](Cc1ccccc1)c1nccs1)OC)N(C)C(=O)[C@H](NC(=O)[C@@H](C(C)C)N(C)C)C(C)C (some centres undefined)
IC50 (cells): > 67.5 µM (inactive)
IC50 [3]: > 67.5 µM (inactive)

CSCCC(=O)N1CC[C@@H](N2CCN(c3ccccc3F)CC2)[C@H](O)C1
EC50 (Mu-type opioid receptor): 92.5 µM (inactive)
EC50 [1]: 41.7 µM (inactive)

COc1cccc(CNc2nc(NCc3ccccc3OC)nc3ccsc23)c1
IC50 (Protein skinhead-1): > 100 µM (inactive)
AC50 [13]: 31.9 µM (active)
AC50 [14]: 68.5 µM (active)
AC50 [15]: 16.8 µM (active)

O=C(Nc1ccc(Cl)c(Cl)c1)N[C@H]1CC[C@H](CCn2cc(C3CCCCC3)nn2)O[C@@H]1CO
AC50 [13]: 18.9 µM (active)
AC50 [14]: 61 µM (active)
AC50 [16]: 16.8 µM (active)
AC50 [15]: 43.9 µM (active)

CCC1CS/C(=N\c2ccc(C)cc2)N1C(=O)CN1C(=O)NC2(CCCC2)C1=O (centres undefined)
IC50 (cells): > 67.6 µM (inactive)
IC50 [3]: > 67.6 µM (inactive)

CC(=O)NCC1(c2ccccc2)CCN(CC2COc3ccccc3O2)CC1 (centres undefined) [ACOXATRINE]
EC50 (Mu-type opioid receptor): 92.6 µM (inactive)
EC50 [1]: 76.2 µM (inactive)
